Data on 2 compounds can be found in publication PMC7224190, “Pharmacological inhibition of PRMT7 links arginine monomethylation to the cellular stress response” (Nature Communications, 2020).

Experiment in all cases: biochemical
Holding throughout (set-up): radiometric methyltransferase selectivity assay with tritiated SAM, per cent activity
Holding throughout (conditions): read-out: % of control remaining

One test addresses T1, SMYD3 (Homo sapiens, UniProt Q9H7B4).
T1 sequence (Q9H7B4 1-428): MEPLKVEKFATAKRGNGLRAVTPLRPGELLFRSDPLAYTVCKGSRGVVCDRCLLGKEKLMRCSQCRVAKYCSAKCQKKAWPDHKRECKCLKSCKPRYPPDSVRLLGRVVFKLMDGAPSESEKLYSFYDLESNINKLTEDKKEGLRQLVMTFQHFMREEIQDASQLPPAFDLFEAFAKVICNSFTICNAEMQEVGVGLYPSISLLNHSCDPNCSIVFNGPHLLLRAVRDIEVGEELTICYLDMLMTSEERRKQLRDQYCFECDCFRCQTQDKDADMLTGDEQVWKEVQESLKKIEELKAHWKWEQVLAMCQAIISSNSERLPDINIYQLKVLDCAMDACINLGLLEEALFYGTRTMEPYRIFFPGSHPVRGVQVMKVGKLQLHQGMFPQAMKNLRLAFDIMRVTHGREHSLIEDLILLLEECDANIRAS
How it is done:
(§1) The methyltransferase selectivity was assessed at two compound concentrations of 1 and 10 μM by radiometric assays using tritiated-SAM. For methyltransferases: MLL1, MLL3, EZH1 (PRC2), and EZH2 (PRC2), G9a, GLP, SUV39H1, SUV39H2, SUV420H1, SUV420H2, SETD2, SETD8, SETDB1, SETD7, PRMT1, PRMT3, PRMT4, PRMT5/ MEP50 complex, PRMT6, PRMT7, PRMT8, PRMT9, PRDM9, SMYD2, SMYD3, DNMT1, and BCDIN3D the incorporation of a tritium-labeled methyl group into biotinylated substrate was monitored using scintillation proximity assay (SPA). Briefly, a 10 μL reaction containing ^3H-SAM and substrate at concentrations close to the apparent Km values for each enzyme (balanced conditions) was prepared. The reactions were quenched with 10 μL of 7.5 M guanidine hydrochloride; 180 μL of 20 mM Tris buffer (pH 8.0) were added, and the mixture was transferred to a 96-well FlashPlate and incubated for 1 h. The counts per minute (CPM) was measured on a TopCount plate reader. The CPM in the absence of compound or enzyme was defined as 100% activity and background (0%), respectively, for each dataset[74]–[76]. Selectivity of SGC8158 against 342 kinases was evaluated in a kinase panel TR-FRET assay at 1 and 0.1 μM compound in duplicates as described before. Briefly, tagged kinases were incubated with compound and staurosporine-based fluorescent probe where the binding was detected using Tb conjugated anti-tag antibody energy transfer to the probe. Excitation wavelength was 337 nm and fluorescent emission signal was measured for Tb (486 nm) and fluorescent probe (BODIPY, 515 nm). Specific and non-specific binding was determined in the absence and presence of unlabeled staurosporine.

For another test, the target named is T2, GLP (Homo sapiens, UniProt Q9H9B1).
T2 construct: gene EHMT1
T2 sequence (Q9H9B1 1-1298): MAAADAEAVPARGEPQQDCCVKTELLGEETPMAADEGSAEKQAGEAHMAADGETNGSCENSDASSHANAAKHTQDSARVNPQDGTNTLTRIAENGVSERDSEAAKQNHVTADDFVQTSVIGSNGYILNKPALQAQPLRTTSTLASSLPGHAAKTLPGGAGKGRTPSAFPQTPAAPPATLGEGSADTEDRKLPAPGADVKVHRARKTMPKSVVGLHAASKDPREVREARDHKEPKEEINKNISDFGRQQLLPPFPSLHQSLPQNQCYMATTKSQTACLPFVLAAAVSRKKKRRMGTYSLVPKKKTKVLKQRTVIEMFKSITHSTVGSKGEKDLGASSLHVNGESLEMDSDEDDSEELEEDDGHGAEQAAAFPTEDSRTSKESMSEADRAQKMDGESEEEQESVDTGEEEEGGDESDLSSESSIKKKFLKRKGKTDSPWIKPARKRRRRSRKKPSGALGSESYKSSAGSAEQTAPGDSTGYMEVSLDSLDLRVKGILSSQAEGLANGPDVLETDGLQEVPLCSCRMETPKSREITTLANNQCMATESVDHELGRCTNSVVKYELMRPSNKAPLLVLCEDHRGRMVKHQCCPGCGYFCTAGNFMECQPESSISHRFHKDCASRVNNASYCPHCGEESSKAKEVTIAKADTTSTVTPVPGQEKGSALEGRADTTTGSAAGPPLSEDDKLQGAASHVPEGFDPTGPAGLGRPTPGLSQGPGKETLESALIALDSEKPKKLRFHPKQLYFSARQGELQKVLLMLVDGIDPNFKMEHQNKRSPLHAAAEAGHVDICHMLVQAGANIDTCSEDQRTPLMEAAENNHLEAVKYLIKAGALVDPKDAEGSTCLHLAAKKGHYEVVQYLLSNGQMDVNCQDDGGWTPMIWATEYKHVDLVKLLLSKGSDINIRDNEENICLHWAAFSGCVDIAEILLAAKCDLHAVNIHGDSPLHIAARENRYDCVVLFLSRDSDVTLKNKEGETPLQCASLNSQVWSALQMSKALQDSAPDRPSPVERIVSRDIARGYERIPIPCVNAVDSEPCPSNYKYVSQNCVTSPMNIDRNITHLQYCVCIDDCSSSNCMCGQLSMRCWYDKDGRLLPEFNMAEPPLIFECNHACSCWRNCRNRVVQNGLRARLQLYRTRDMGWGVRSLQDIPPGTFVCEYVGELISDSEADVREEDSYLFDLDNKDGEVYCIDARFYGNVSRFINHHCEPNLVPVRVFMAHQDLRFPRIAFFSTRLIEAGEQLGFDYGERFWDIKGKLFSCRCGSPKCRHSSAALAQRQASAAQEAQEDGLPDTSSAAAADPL
As to the method: as §1

The target in another test is PRDM9 (Homo sapiens, UniProt Q9NQV7). As to the method:
as §1

The next test deals with PRMT3 (Homo sapiens, UniProt O60678). As to the method:
as §1

The target in the next test is SUV39H2 (Homo sapiens, UniProt Q9H5I1). As to the method:
as §1

SUV39H2, sequence (Q9H5I1 whole entry): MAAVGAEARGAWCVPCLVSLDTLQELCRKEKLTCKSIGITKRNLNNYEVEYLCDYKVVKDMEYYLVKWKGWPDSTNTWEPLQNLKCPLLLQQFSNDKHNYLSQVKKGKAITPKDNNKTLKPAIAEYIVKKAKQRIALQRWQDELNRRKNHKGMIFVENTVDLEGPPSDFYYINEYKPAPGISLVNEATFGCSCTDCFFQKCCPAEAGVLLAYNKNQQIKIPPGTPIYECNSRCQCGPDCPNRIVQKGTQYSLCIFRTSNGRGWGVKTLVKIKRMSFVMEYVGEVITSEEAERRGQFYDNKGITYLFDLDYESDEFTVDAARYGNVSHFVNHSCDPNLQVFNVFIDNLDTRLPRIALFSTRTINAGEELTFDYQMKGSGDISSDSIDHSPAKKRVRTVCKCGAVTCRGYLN
PRDM9, sequence (Q9NQV7 whole entry): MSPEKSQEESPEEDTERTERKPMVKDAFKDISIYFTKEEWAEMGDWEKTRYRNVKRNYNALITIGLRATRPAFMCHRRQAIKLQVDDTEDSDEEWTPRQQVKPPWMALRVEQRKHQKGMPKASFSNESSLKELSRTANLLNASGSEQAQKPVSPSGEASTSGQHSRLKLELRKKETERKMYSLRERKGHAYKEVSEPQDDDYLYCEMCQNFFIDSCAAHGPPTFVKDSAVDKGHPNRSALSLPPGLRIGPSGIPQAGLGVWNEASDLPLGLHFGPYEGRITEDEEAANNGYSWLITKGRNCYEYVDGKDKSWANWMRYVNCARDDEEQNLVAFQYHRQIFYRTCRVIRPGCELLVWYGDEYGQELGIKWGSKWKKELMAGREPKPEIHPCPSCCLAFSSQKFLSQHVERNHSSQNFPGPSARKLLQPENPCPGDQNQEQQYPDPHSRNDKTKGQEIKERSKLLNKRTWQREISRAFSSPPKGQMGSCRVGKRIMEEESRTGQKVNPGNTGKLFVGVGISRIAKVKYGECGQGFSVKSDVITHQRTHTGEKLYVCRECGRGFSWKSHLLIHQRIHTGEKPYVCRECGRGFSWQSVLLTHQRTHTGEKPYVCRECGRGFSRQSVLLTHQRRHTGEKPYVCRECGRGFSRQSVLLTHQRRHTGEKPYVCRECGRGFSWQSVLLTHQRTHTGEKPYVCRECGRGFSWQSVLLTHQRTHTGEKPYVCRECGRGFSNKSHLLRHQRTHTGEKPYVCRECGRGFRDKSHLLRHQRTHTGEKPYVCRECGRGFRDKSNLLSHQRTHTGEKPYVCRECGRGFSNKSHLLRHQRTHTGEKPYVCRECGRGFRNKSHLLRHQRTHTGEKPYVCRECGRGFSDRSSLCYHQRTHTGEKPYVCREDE
PRMT3, sequence (O60678 whole entry): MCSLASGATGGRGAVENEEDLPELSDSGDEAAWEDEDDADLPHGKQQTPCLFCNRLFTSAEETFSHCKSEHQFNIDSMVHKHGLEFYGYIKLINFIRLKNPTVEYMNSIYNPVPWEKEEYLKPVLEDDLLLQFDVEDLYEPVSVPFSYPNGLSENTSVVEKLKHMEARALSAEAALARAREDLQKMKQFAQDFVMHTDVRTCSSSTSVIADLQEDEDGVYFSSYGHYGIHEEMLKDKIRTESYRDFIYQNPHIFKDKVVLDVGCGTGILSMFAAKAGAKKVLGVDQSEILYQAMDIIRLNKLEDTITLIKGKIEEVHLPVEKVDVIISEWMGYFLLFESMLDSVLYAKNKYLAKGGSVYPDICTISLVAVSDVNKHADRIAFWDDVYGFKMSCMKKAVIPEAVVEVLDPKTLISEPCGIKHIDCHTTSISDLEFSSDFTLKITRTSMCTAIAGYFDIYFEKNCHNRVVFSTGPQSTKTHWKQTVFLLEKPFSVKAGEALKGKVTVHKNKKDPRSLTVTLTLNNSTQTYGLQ

Consider `CC1(C)O[C@@H]2[C@H](O1)[C@@H](CSCCCCNCc1cccc(-c3ccc(Cl)cc3)c1)O[C@H]2n1cnc2c(N)ncnc21` [SGC8158N], for which the remaining activity at 1 µM at SMYD3 stood at 100%; on GLP, 95%; at PRDM9 it was 101%; at PRMT3, 96%; on SUV39H2 it was 103%. Further, the remaining activity at 10 µM at SMYD3 was determined as 102%; on GLP, 90%; at PRDM9, 98%; at PRMT3, 96%; at SUV39H2, 78%.
Turning to `Nc1ncnc2c1ncn2[C@@H]1O[C@H](CSCCCCNCc2cccc(-c3ccc(Cl)cc3)c2)[C@@H](O)[C@H]1O` [SGC8158], the remaining activity at 1 µM was determined as 102% on SMYD3; 99% at GLP; 106% on PRDM9; 57% at PRMT3; 103% on SUV39H2. Further, the remaining activity at 10 µM on SMYD3 amounted to 104%; at GLP, 95%; at PRDM9, 96%; at PRMT3, 6%; at SUV39H2, 102%.
